Test results published in patent US6479666B2, “Phenyl-keto-imidazolidine thioamide derivatives” (Hoffman-La Roche Inc., priority 2001, dated 2002).
Structures can show the parent of a compound that is named as a salt.

Assays:
[1] = biological target: T1, VLA-4 (α4β1 integrin) binding to immobilized VCAM-1 (Homo sapiens, UniProt P05556+P13612); assay: VLA-4/VCAM-1 Screening Assay (solid-phase dual antibody ELISA); conditions: Ramos cell-derived VLA-4, recombinant human VCAM-1 coated plates
T1 construct: followed by 10 μl of Ramos cell-derived VLA-4; endogenous in cells; host or cells: Ramos cells (VLA-4 prepared from them)
T1 sequence (P13612 34-1032): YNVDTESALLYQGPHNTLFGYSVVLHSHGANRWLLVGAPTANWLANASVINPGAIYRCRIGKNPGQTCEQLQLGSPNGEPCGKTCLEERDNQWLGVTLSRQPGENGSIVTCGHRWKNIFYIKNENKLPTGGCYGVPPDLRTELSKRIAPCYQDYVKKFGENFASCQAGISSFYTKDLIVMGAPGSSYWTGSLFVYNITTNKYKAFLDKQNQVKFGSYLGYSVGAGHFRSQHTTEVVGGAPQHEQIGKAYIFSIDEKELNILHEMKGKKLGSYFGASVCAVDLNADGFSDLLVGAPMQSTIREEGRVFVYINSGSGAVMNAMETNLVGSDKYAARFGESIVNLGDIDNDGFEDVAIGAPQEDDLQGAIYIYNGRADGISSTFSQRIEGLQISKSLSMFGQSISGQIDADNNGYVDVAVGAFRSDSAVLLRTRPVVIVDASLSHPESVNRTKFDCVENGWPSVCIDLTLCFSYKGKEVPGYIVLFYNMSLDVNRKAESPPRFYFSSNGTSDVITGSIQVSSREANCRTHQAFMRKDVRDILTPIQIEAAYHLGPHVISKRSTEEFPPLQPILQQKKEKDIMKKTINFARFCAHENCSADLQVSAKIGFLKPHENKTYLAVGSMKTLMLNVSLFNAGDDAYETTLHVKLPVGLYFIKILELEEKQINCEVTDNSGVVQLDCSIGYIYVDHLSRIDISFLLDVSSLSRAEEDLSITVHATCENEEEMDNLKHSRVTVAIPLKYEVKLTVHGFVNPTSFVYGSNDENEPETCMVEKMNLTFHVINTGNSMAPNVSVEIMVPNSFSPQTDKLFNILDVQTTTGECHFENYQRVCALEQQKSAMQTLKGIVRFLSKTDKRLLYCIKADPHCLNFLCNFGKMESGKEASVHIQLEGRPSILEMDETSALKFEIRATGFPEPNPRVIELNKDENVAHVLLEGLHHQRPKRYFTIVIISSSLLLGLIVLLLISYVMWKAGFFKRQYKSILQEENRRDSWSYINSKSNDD
T1 sequence (P05556 21-798): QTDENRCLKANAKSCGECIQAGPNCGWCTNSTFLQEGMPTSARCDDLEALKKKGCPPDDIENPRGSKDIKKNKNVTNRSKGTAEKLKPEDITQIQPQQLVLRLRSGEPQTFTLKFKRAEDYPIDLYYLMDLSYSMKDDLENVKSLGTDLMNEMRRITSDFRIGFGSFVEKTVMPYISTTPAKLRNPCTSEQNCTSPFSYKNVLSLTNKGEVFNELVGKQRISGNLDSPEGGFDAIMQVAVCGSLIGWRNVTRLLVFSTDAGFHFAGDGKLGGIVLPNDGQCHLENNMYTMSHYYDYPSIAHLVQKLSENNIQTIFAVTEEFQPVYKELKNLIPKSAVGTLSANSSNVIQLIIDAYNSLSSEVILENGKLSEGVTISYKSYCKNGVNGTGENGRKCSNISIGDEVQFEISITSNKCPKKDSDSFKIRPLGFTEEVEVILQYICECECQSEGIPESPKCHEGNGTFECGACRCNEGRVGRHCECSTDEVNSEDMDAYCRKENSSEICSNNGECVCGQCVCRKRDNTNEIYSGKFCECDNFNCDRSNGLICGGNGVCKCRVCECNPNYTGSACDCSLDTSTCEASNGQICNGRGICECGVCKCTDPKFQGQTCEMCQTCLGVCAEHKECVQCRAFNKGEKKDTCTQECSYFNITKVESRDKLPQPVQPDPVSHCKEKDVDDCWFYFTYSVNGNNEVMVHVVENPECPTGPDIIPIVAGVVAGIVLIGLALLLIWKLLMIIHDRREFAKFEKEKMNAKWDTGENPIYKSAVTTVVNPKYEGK
Protocol: 1. VLA-4/VCAM-1 Screening Assay
VLA-4 antagonist activity, defined as ability to compete for binding to immobilized VCAM-1, was quantitated using a solid-phase, dual antibody ELISA. VLA-4 (α4β1 integrin) bound to VCAM-1 is detected by a complex of anti-integrin β1 antibody: HRP-conjugated anti-mouse IgG: chromogenic substrate (K-Blue). Initially, this entailed coating 96 well plates (Nunc Maxisorp) with recombinant human VCAM-1 (0.4 μg in 100 μl PBS), sealing each plate and then allowing the plates to stand at 4° C. for ^˜18 hr. […] On the day of assay, all plates are washed twice with VCAM Assay Buffer (200 μl/well of 50 mM Tris-HCl, 100 mM NaCl, 1 mM MnCl2, 0.05% Tween 20; pH 7.4). Test compounds are dissolved in 100% DMSO and then diluted 1:20 in VCAM Assay Buffer supplemented with 1 mg/mL BSA (i.e., final DMSO=5%). A series of 1:4 dilutions are performed to achieve a concentration range of 0.005 nM−1.563 μM for each test compound. 100 μl per well of each dilution is added to the VCAM-coated plates, followed by 10 μl of Ramos cell-derived VLA-4. These plates are sequentially mixed on a platform shaker for 1 min, incubated for 2 hr at 37° C., and then washed four times with 200 μl/well VCAM Assay Buffer. 100 μl of mouse anti-human integrin β1 antibody is added to each well (0.6 μg/mL in VCAM Assay Buffer+1 mg/mL BSA) and allowed to incubate for 1 hr at 37° C. At the conclusion of this incubation period, all plates are washed four times with VCAM Assay Buffer (200 μl/well). A corresponding second antibody, HRP-conjugated goat anti-mouse IgG (100 μl per well @ 1:800 dilution in VCAM Assay Buffer+1 mg/mL BSA), is then added to each well, followed by a 1 hr incubation at room temperature and concluded by three washes (200 μl/well) with VCAM Assay Buffer. Color development is initiated by addition of 100 μl K-Blue per well (15 min incubation, room temp) and terminated by addition of 100 μl Red Stop Buffer per well. All plates are then read in a UV/V is spectrophotometer at 650 nM. Results are calculated as % inhibition of total binding (i.e., VLA-4+VCAM-1 in the absence of test compound).

[2] = biological target: T2, Ramos cells bearing cell-surface VLA-4 (α4β1 integrin) binding to VCAM-1 (Homo sapiens, UniProt P05556+P13612); assay: Ramos (VLA-4) / VCAM-1 Cell-Based Screening Assay (cell adhesion); conditions: Calcein-AM labelled Ramos cells, VCAM-1 coated plates
T2 construct: Ramos cells bearing cell-surface VLA-4; endogenous in cells; host or cells: Ramos cells (VLA-4); VCAM-1 made in CHO cells
T2 sequence (P13612 34-1032): as the sequence (P13612 34-1032) above
T2 sequence (P05556 21-798): as the sequence (P05556 21-798) above
Protocol: 2. Ramos (VLA-4) / VCAM-1 Cell-Based Screening Assay Protocol
Soluble recombinant human VCAM-1 (mixture of 5- and 7-Ig domain) was purified from CHO cell culture media by immunoaffinity chromatography and maintained in a solution containing 0.1 M Tris-glycine (pH 7.5), 0.1 M NaCl, 5 mM EDTA, 1 mM PMSF, […] NaN3 and 10 μg/mL leupeptin. Calcein-AM was purchased from Molecular Probes Inc.
VLA-4 (α4β1 integrin) antagonist activity, defined as ability to compete with cell-surface VLA-4 for binding to immobilized VCAM-1, was quantitated using a Ramos-VCAM-1 cell adhesion assay. Ramos cells bearing cell-surface VLA-4, were labeled with a fluorescent dye (Calcein-AM) and allowed to bind VCAM-1 in the presence or absence of test compounds. A reduction in fluorescence intensity associated with adherent cells (% inhibition) reflected competitive inhibition of VLA-4 mediated cell adhesion by the test compound. Initially, this entailed coating 96 well plates (Nunc Maxisorp) with recombinant human VCAM-1 (100 ng in 100 μl PBS), sealing each plate and allowing the plates to stand at 4° C. for ^˜18 hr. The VCAM-coated plates were subsequently washed twice with 0.05% Tween-20 in PBS, and then blocked for 1 hr (room temperature) with 200 μl of Blocking Buffer (1% BSA/0.02% thimerosal) to reduce non-specific binding. Following the incubation with Blocking Buffer, plates were inverted, blotted and the remaining buffer aspirated. Each plate was then washed with 300 μl PBS, inverted and the remaining PBS aspirated.
Test compounds were dissolved in 100% DMSO and then diluted 1:25 in VCAM Cell Adhesion Assay Buffer (4 mM CaCl2, 4 mM MgCl2 in 50 mM TRIS-HCl, pH 7.5) (final DMSO=4%). A series of eight 1:4 dilutions were performed for each compound (general concentration range of 1 nM-12,500 nM). 100 μl/well of each dilution was added to the VCAM-coated plates, followed by 100 μl of Ramos cells (200,000 cells/well in 1% BSA/PBS). Plates containing test compounds and Ramos cells were allowed to incubate for 45 min at room temperature, after which 165 μl/well PBS was added. Plates were inverted to remove non-adherent cells, blotted and 300 μl/well PBS added. Plates were again inverted, blotted and the remaining buffer gently aspirated. 100 μl Lysis Buffer (0.1% SDS in 50 mM TRIS-HCl, pH 8.5) was added to each well and agitated for 2 min on a rotary shaking platform. The plates were then read for fluorescence intensity on a Cytofluor 2300 (Millipore) fluorescence measurement system (excitation=485 nm, emission=530 nm).

[3] = tested on: cynomolgus monkeys (Macaca fascicularis) challenged with Ascaris suum antigen; assay: Acute airway inflammation in the atopic primate; format: in vivo; conditions: p.o., 2 hours prior to antigen challenge; lavage at 24 hour after A. suum antigen challenge
Protocol: Example 4. Acute airway inflammation in the atopic primate.
Airway inflammation in the monkey was determined using a modification of the protocol described by Turner et al. (Turner et al., 1994). Adult male cynomolgus monkeys (Macaca fascicularis, Hazelton Labs, Denver, Pa.) weighing between 3.6-5.8 kg were used in these studies.
On the day of each experiment the animals were anesthetized with ketamine hydrochloride, 12 mg/kg, and xylazine, 0.5 mg/kg, intubated with a cuffed endotracheal tube (3 mm, Mallinckrodt Medical, St. Louis, Mo.), then seated in an upright position in a specially designed Plexiglass chair (Plas-Labs, Lansing, Mich.). The endotracheal tube was connected to a heated Fleisch pneumotachograph. Airflow was measured via a Validyn differential pressure transducer (DP 45-24) that was attached to the pneumotachograph. Transpulmonary pressure was measured via a second Validyne transducer (DP 45-24) connected between a sidearm of the tracheal cannula and a 18-gauge intrapleural needle inserted in the intercostal space located below the left nipple. […]
Airway inflammation was induced by exposing the animal to an aerosol of A. Suum extract for 60 sec. […] Airway inflammation was assessed by inserting a pediatric bronchoscope into the airway lumen down to about the 4 or 5th generation bronchi and gently lavaging with 3 X 2 ml aliquots of sterile Hanks Balanced Salt Solution. […]

Structure (SMILES) | IC50 [1] | IC50 [2] | melting point | number and percent of inflammatory cells present in the lavage fluid relative to vehicle treated control animals [3]
CCc1cccc(C)c1C(=S)N[C@@H](Cc1ccc(NC(=O)c2c(Cl)cccc2Cl)cc1)C(=O)O [Example 25, 4-[[(2,6-dichlorophenyl)carbonyl]amino]-N-[(2-ethyl-6-methylphenyl)thioxomethyl]-L-phenylalanine] | 6 nM | 101 nM |  | 
CS(=O)(=O)CCCC1(C(=S)N[C@@H](Cc2ccc(NC(=O)c3c(Cl)cccc3Cl)cc2)C(=O)O)CCC1 [Example 78, 4-[[(2,6-dichlorophenyl)carbonyl]amino]-N-[[1-[3-(methylsulfonyl)propyl]cyclobutyl]thioxomethyl]-L-phenylalanine] |  | 341 nM |  | 
CS(=O)(=O)CCCCC1(C(=S)N[C@@H](Cc2ccc(NC(=O)c3c(Cl)cccc3Cl)cc2)C(=O)O)CCCC1 [Example 50, 4-[[(2,6-dichlorophenyl)carbonyl]amino]-N-[[1-[4-(methylsulfonyl)butyl]cyclopentyl]thioxomethyl]-L-phenylalanine] |  | 30 nM | 200 to 202 °C | 
COCCC1(C(=S)N[C@@H](Cc2ccc([N+](=O)[O-])cc2)C(=O)OC)CCCC1 [Example 1, N-[[1-(2-methoxyethyl)cyclopentyl]thioxomethyl]-4-nitro-L-phenylalanine methyl ester] |  |  |  | significant decrease
Cc1cc(C(F)(F)F)c(C(=O)Nc2ccc(C[C@H](NC(=S)C3(CCCCS(C)(=O)=O)CCC3)C(=O)O)cc2)c(C)n1 [Example 84] |  | 5.5 nM |  | 
CNC(=O)NCCC1(C(=S)N[C@@H](Cc2ccc(NC(=O)c3c(Cl)cccc3Cl)cc2)C(=O)O)CCCC1 [Example 11] | 5.6 nM | 42.5 nM |  | 
CS(=O)(=O)CCCCC1(C(=S)N[C@@H](Cc2ccc(NC(=O)c3c(Cl)cccc3Cl)cc2)C(=O)O)CCC1 [Example 62, 4-[[(2,6-dichlorophenyl)carbonyl]amino]-N-[[1-[4-(methylsulfonyl)-butyl]cyclobutyl]thioxomethyl]-L-phenylalanine] |  | 8 nM |  | 
COCCC1(C(=S)N[C@@H](Cc2ccc(NC(=O)c3c(Cl)cccc3Cl)cc2)C(=O)O)CCCC1 [Example 3, 4-[[(2,6-dichlorophenyl)carbonyl]amino]-N-[[1-(2-methoxy-ethyl)cyclopentyl]thioxomethyl]-L-phenylalanine] | 4 nM | 66.5 nM |  | 
CC(=O)NCCC1(C(=S)N[C@@H](Cc2ccc(NC(=O)c3c(Cl)cccc3Cl)cc2)C(=O)O)CCCC1 [Example 10, N-[[1-[2-(acetylamino)ethyl]cyclopentyl]thioxomethyl]-4-[[(2,6-dichlorophenyl)carbonyl]amino]-L-phenylalanine] | 1.5 nM | 33 nM |  | 
CCc1cccc(C)c1C(=S)N[C@@H](Cc1ccc(N2C(=O)[C@@H](Cc3cccnc3)N(C(C)=O)[C@@H]2c2ccccc2)cc1)C(=O)O [Example 29, 4-[(2S,4R)-3-acetyl-5-oxo-2-phenyl-4-[(pyridin-3-yl)methyl]imidazolidin-1-yl]-N-[(2-ethyl-6-methylphenyl)thioxomethyl]-L-phenylalanine] |  | 220 nM |  | 
O=C(Nc1ccc(C[C@H](NC(=S)c2ccccc2F)C(=O)O)cc1)c1c(Cl)cccc1Cl [Example 34, 4-[[(2,6-dichlorophenyl)carbonyl]amino]-N-[(2-fluorophenyl)thioxomethyl]-L-phenylalanine] |  | 4180 nM |  | 
Cc1ccnc(C)c1C(=O)Nc1ccc(C[C@H](NC(=S)C2(CCCCS(C)(=O)=O)CCCC2)C(=O)O)cc1 [Example 53, 4-[[(2,4-dimethylpyridin-3-yl)carbonyl]amino]-N-[[1-[4-(methylsulfonyl)butyl]-cyclopentyllthioxomethyl]-L-phenylalaninetrifluoroacetic acid salt] |  | 148 nM |  | 
CSCCCC1(C(=S)N[C@@H](Cc2ccc(NC(=O)c3c(Cl)cccc3Cl)cc2)C(=O)O)CCC1 [Example 71, 4-[[(2,6-dichlorophenyl)carbonyl]amino]-N-[[1-[3-(methylthio)propyl]cyclobutyl]-thioxomethyl]-L-phenylalanine] |  | 926 nM | 186 to 188 °C | 
O=C(Nc1ccc(C[C@H](NC(=S)c2ccccc2C(F)(F)F)C(=O)O)cc1)c1c(Cl)cccc1Cl [Example 39, 4-[[(2,6-dichlorophenyl)carbonyl]amino]-N-[[2-(trifluoromethyl)phenyl]thioxomethyl]-L-phenylalanine] |  | 784 nM |  | 
Cc1cccc(Cl)c1C(=S)N[C@@H](Cc1ccc(NC(=O)c2c(Cl)cccc2Cl)cc1)C(=O)O [Example 18, 4-[[(2,6-dichlorophenyl)carbonyl]amino]-N-[(2-chloro-6-methylphenyl)thioxomethyl]-L-phenylalanine] | 0.47 nM | 60 nM |  | 
